# Data as given in publication PMC10397248, “A novel N^6-Deoxyadenine methyltransferase METL-9 modulates C. elegans immunity via dichotomous mechanisms” (Cell Research, 2023).
# T1: METL-9 (recombinant GST-METL-9) (Caenorhabditis elegans, UniProt Q22123, N172K/D274G)
# T1 sequence (Q22123 1-311 N172K/D274G): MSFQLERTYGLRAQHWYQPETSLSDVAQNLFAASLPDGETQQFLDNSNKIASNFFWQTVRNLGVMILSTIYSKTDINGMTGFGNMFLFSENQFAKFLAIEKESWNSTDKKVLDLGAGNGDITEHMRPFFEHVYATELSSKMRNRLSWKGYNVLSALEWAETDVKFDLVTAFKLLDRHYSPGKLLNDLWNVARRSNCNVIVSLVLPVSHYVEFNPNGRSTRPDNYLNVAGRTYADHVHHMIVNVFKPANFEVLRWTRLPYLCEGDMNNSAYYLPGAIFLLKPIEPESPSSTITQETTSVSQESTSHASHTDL
# Assays:
# [1] = target: mouse Mettl9 (recombinant GST-Mettl9) (Mus musculus, UniProt Q9EPL4); assay: in vitro DNA 6mA methylation, LC-MS/MS; format: biochemical; settings: biotin-ssDNA or bubbled DNA with GAGG motif 2 uM, SAM or d3-SAM 0.1 mM (which one only in supplement), pH 7.5, 2.5 mM MgCl2, 25 °C; methyl donor
# [2] = target: T1, METL-9 (recombinant GST-METL-9); assay: in vitro DNA 6mA methylation, LC-MS/MS; format: biochemical; settings: biotin-ssDNA oligo 2 uM, d3-SAM 0.1 mM, HEPES pH 7.5, 2.5 mM MgCl2, 80 mM KCl, 20 °C; methyl donor; labelled compound
# purified protein = substrate: C[S+](CC[C@H](N)C(=O)O)C[C@H]1O[C@@H](n2cnc3c(N)ncnc32)[C@H](O)[C@@H]1O; assay: purified protein; settings: ssDNA oligo 5 uM, varied d3-SAM, HEPES pH 7.5, 2.5 mM MgCl2, 80 mM KCl, 20 °C, methyl donor, labelled compound
# Sequence of mouse Mettl9 (recombinant GST-Mettl9) (Q9EPL4 whole entry): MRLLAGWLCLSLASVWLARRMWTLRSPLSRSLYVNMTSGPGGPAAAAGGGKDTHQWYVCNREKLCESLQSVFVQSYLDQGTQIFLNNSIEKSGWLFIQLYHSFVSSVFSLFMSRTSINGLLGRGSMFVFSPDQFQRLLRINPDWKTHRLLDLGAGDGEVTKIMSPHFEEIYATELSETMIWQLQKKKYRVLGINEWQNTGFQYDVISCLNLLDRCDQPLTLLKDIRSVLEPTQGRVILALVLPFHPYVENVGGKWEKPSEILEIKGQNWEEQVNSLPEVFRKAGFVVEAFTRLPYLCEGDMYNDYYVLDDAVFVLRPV
molecule,measurement,setting,value
C[S+](CC[C@H](N)C(=O)O)C[C@H]1O[C@@H](n2cnc3c(N)ncnc32)[C@H](O)[C@@H]1O (stereo partly shown) [SAM],"in vitro DNA 6mA methylation, LC-MS/MS",[1],mouse Mettl9 protein showed 6mA methyltransferase activity towards ssDNA and bubbled DNA
C[S+](CC[C@H](N)C(=O)O)C[C@H]1O[C@@H](n2cnc3c(N)ncnc32)[C@H](O)[C@@H]1O (stereo partly shown) [d3-SAM],"in vitro DNA 6mA methylation, LC-MS/MS",[2],"double mutant (M8 + M10, metl-9^mut) almost completely abolished the 6mA methyltransferase activity of METL-9"
METL-9 (recombinant GST-METL-9) (Caenorhabditis elegans) (protein) MSFQLERTYGLRAQHWYQPETSLSDVAQNLFAASLPDGETQQFLDNSNKIASNFFWQTVRNLGVMILSTIYSKTDINGMTGFGNMFLFSENQFAKFLAIEKESWNSTDKKVLDLGAGNGDITEHMRPFFEHVYATELSSKMRNRLSWKGYNVLSALEWAETDVKFDLVTAFNLLDRHYSPGKLLNDLWNVARRSNCNVIVSLVLPVSHYVEFNPNGRSTRPDNYLNVAGRTYADHVHHMIVNVFKPANFEVLRWTRLPYLCEGDMNNSAYYLPDAIFLLKPIEPESPSSTITQETTSVSQESTSHASHTDL,Km,purified protein,37.69 ± 3.75 µM
same,kcat,purified protein,0.00131 ± 5.83e-05 s⁻¹
